Reference: patent publication US12213959B2, “Use of 3-O-sulfamoyloxy-7β-methyl-d-homo-6-oxaestra-1,3,5(10),8(9)-tetraen-17a-one to treat breast cancer” (priority 2018, dated 2025)
Several values for one entry are separate records, joined by “and”; a condition that tells them apart may be missing. Equal values may be shown once. Marks after values point to notes of the source that are not given here.

Experiments:
[1] = system: breast tumours in FBV/N female mice, transgenic for HER-2/neu; assay: Antitumour activity on breast tumours of HER-2/neu transgenic mice; format: in vivo; settings: for Relative change of the average total volume of tumours to that of Day −1 (M): medicament 100.0 mg/kg daily i.g.
Protocol: The study was carried out on female FVB mice transgenic for HER-2/neu of the conventional category, the strain being obtained from the mouse bank Charles River Laboratories (Italy).
Duration of the administration course was 27-28 days.
The control groups were given the olive oil (placebo).
The macroscopically detectable tumor nodes were measured in the animals once per week during the weighing process.

[2] = system: MDA-MB-231 cell line of triple negative breast cancer; assay: Cell growth inhibition on MDA-MB-231; format: cell-based; settings: Homo sapiens
uterine body = assay: Hormonal effects on the uterine body (uterine weight); format: in vivo, mice; settings: for Uterine weight: end of observation
Protocol: The hormonal effects of the medicament on the uterine body was analyzed by comparing the uterine weight without uterine horns at the end of the observation period (Table 13).

[3] = system: MCF-7 human cells culture (breast adenocarcinoma); assay: Proliferative activity of MCF-7 cells; format: cell-based; settings: 20 μg/ml
Protocol: (§1) The study analysis was carried out on an passaged MCF-7 human cells culture culture (breast adenocarcinoma). Normal human dermal fibroblasts (HDF) of early passages were used as a negative control.
(§2) The cells were cultivated in Carrel vials in DMEM/F12 medium (Biolot) with 1.0% of antibiotic-free fetal bovine embryonic serum (Biolot) added in the 5% CO2 atmosphere, at 37° C.
(§3) The cells were seeded on Carrel vials at 50×10^4 cells per flask. To study the proliferative activity of the cells under conditions of sulfatase inhibition, 24 hours after seeding the culture medium […], and then these tumor cell lines were incubated for various periods of time (24 to 72 hrs). The inhibitor was dissolved in DMSO. […] To exclude the cytotoxic effect of DMSO, a control sample comprising DMSO without sulfatase inhibitor was prepared.
(§4) To exclude nonspecific detrimental effects of the compounds, normal human skin fibroblasts were used. Then the cells were detached with the versene-trypsin solution (Biolot), plated onto Carrel vials containing a fresh complete culture medium. The cells were counted when untreated control cells reached the maximum cell density per unit of surface area of a culture flask (monolayer), and their number was set as 100%. The proliferative activity of all of the studied cell cultures exposed to sulfatase inhibitors was determined in triplicate.

[4] = system: inoculated human tumour of triple-negative breast cancer; assay: Animal models with inoculated human triple-negative breast cancer tumour; settings: in vivo
[5] = system: Normal human dermal fibroblasts (HDF); assay: Proliferative activity of normal human skin fibroblasts (negative control); format: cell-based; settings: 20 μg/ml
Protocol: as §1, §2, §3, §4

[6] = medicament 20 mg/kg, vs Control-2, Day 0
[7] = medicament 20 mg/kg, vs Control-2, Day 7
[8] = medicament 20 mg/kg, vs Control-2, Day 14
[9] = medicament 20 mg/kg, vs Control-2, Day 21
[10] = medicament 20 mg/kg, vs Control-2, Day 28
[11] = medicament 100 mg/kg daily i.g., Day 0
[12] = medicament 100 mg/kg daily i.g., Day 7
[13] = medicament 100 mg/kg daily i.g., Day 14
[14] = medicament 100 mg/kg daily i.g., Day 21
[15] = medicament 100 mg/kg daily i.g., Day 28
[16] = medicament 100 mg/kg daily i.g., Day 28 vs Day 0
[17] = medicament 100 mg/kg, end of observation
[18] = medicament 100 mg/kg, vs Control-2, Day 0
[19] = medicament 100 mg/kg, vs Control-2, Day 7
[20] = medicament 100 mg/kg, vs Control-2, Day 14
[21] = medicament 100 mg/kg, vs Control-2, Day 21
[22] = medicament 100 mg/kg, vs Control-2, Day 28

For `C[C@H]1Oc2cc(OS(N)(=O)=O)ccc2C2=C1[C@@H]1CCCC(=O)[C@@]1(C)CC2` [medicament, 3-O-sulfamoyloxy-7β-methyl-O-homo-6-oxaestra-1,3,5(10),8(9)-tetraen], the “TGI (average total tumour volume)” value [1, 6] was −116%, the “TGI (average tumor volume)” value [1, 6] was −125% and the “TGI (average total tumour volume)” value [1, 7] was −114%. For the same compound, the “TGI (average tumor volume)” value [1, 7] was −115%, the “TGI (average total tumour volume)” value [1, 8] was −45% and the “TGI (average tumor volume)” value [1, 8] was −54%. The “TGI (average total tumour volume)” value [1, 9] was −19%, the “TGI (average tumor volume)” value [1, 9] was −26% and the “TGI (average total tumour volume)” value [1, 10] was 12%. For the same compound, the “TGI (average tumor volume)” value [1, 10] was 10%, the “Average volume of new tumours at the end of the observation period” value ([1]; medicament 100 mg/kg) was 0.18±0.04 cm^3 and 0.18 cm^3 and the “Average total volume of tumours in mice (M)” value [1, 11] was 0.28 cm^3. The “Average volume of tumors existing at the beginning of the experiment (M)” value (from here on “Average volume of tumors existing”) [1, 11] was 0.13 cm^3, the “Relative change of the average total volume of tumours to that of Day −1 (M)” value (“Relative change … (M)” below) ([1]; Day 0) was 0% and the “Average total volume of tumours in mice (M)” value [1, 12] was 0.41 cm^3. The “Average volume of tumors existing” value [1, 12] was 0.19 cm^3, the “Relative change … (M)” value ([1]; Day 7) was 42% and the “Average total volume of tumours in mice (M)” value [1, 13] was 0.59 cm^3. For the same compound, the “Average volume of tumors existing” value [1, 13] was 0.27 cm^3, the “Relative change … (M)” value ([1]; Day 14) was 89* % and the “Average total volume of tumours in mice (M)” value [1, 14] was 0.81 cm^3. The “Average volume of tumors existing” value [1, 14] was 0.37 cm^3, the “Relative change … (M)” value ([1]; Day 21) was 177*** % and the “Average total volume of tumours in mice (M)” value [1, 15] was 0.97* cm^3. The “Average volume of tumors existing” value [1, 15] was 0.44 cm^3, the “Relative change … (M)” value ([1]; Day 28) was 269*** % and the “Average total tumour volume, % of change to the initial value” [1, 16] was 246%. The “Average tumor volume, % of change to the initial value” [1, 16] was 238%, the “Absolute number of new tumours” value [1, 17] was 19 and the “frequency of stabilisations of tumours present at initiation of treatment” value [1, 17] was 9%. For the same compound, the “volume of new tumours, less than the control (Control-2) value” [1, 17] was 36%, the “TGI (average total tumour volume)” value [1, 18] was −47% and the “TGI (average tumor volume)” value [1, 18] was −63%. The “TGI (average total tumour volume)” value [1, 19] was −41%, the “TGI (average tumor volume)” value [1, 19] was −46% and the “TGI (average total tumour volume)” value [1, 20] was 9%. The “TGI (average tumor volume)” value [1, 20] was 4%, the “TGI (average total tumour volume)” value [1, 21] was 18% and the “TGI (average tumor volume)” value [1, 21] was 14%. For the same compound, the “TGI (average total tumour volume)” value [1, 22] was 30%, the “TGI (average tumor volume)” value [1, 22] was 28% and the “relative change in the total volume of tumours versus control groups” value ([1]; medicament 20 and 100 mg/kg) was “statistically significantly lower”. For the same compound, the IC50 [2] was 4.8 µM, the “uterine weight differences as compared to the control group” value (uterine body; dose range from 2.0 to 100 mg/kg) was “No statistically significant differences” and the Uterine weight (uterine body; medicament 2 mg/kg, All mice) was 37 ± 6 MI. For the same compound, the Uterine weight (uterine body; medicament 2 mg/kg, estrous cycle phase D) was 24 ± 7 MI, the Uterine weight (uterine body; medicament 2 mg/kg, estrous cycle phase E) was 53 ± 3 MI and the Uterine weight (uterine body; medicament 20 mg/kg, All mice) was 50 ± 4 MI. It also gave a Uterine weight (uterine body; medicament 20 mg/kg, estrous cycle phase D) of 45 ± 13 MI, a Uterine weight (uterine body; medicament 20 mg/kg, estrous cycle phase E) of 53 ± 4 MI and a Uterine weight (uterine body; medicament 100 mg/kg, All mice) of 52 ± 5 MI. For the same compound, the Uterine weight (uterine body; medicament 100 mg/kg, estrous cycle phase D) was 34 ± 13 MI, the Uterine weight (uterine body; medicament 100 mg/kg, estrous cycle phase E) was 56 ± 5 MI and the uterotropic activity (uterine body; mouse, in vivo) was “no uterotropic activity”. For the same compound, the “proliferation of MCF-7 tumour cells” value [3] was “completely blocks”, the “action compared with Tamoxifen and Letrozole” value [4] was “better action than that of the clinically used Tamoxifen and an aromatase inhibitor Letrozole” and the “growth of human skin fibroblasts” value [5] was “does not influence the growth”.
